From patent US20250188079A1, “INHIBITING CYCLIC AMP-RESPONSIVE ELEMENT-BINDING PROTEIN (CREB)” (Forma Therapeutics, Inc., priority 2019, published 2025)

Target: CBP (Homo sapiens (Human), UniProt Q92793)
Assay: HTRF biochemical assay for CBP activity (TR-FRET, bromodomain)
Format: binding
Settings: geometric mean, 10-point 3-fold dilution 33 μM to 1.7 nM, read-out: BROMO IC50 TRF TB CBP (μM gmean)
How it was run: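 IC50 derives from a 4-parameter logistic fit of % inhibition, calculated from the 520/490 nm TR-FRET ratio against DMSO and no-enzyme controls. Final compound levels spanned 33 μM to 1.7 nM (10 points, 3-fold), with CBP and peptide ligand in Hepes pH 7.5/GSH/BGG/BSA/Triton buffer, incubated at room temperature for varying times.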

CBP, sequence (Q92793 1085-1192): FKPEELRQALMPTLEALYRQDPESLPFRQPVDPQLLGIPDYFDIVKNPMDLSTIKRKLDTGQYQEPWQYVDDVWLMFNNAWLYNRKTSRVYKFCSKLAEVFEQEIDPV

IC50	Structure (SMILES)
0.001 to 0.01 µM	COC(=O)N1CCc2ccc3c(nc([C@H]4CC[C@H](C(=O)O)CC4)n3[C@@H](C)[C@@H](O)c3ccccc3)c2C1 [Compound 92]
0.001 to 0.01 µM	COC(=O)N1CCc2ccc3c(nc([C@H]4CC[C@H](C(=O)O)CC4)n3[C@@H](C)Cn3cc(Cl)cn3)c2C1 [Compound 85]
0.01 to 0.1 µM	COC(=O)N1CCc2ccc3c(nc(-c4cccc(C(C)(C)C(=O)O)c4)n3[C@@H](C)Cn3cc(Cl)cn3)c2C1 [Compound 185]
0.001 to 0.01 µM	COC(=O)N1CCc2ccc3c(nc(C4CCN(S(N)(=O)=O)CC4)n3[C@@H](C)Cc3ccccc3)c2C1 [Compound 107]
0.1 to 1 µM	COC(=O)N1CCc2ccc3c(nc(-c4ccncc4)n3[C@H](C)Cc3ccccc3)c2C1 [Compound 326]
0.01 to 0.1 µM	COC(=O)N1CCc2ccc3c(nc([C@@H]4CCC[C@@H](C(=O)O)C4)n3C[C@H]3CC[C@H](OC)CC3)c2C1 [Compound 262]
0.001 to 0.01 µM	COC(=O)N1CCc2c([C@@H]3CCOC3)cc3c(nc([C@H]4CC[C@H](C(=O)O)CC4)n3CCc3ccccc3)c2C1 [Compound 90]
0.001 to 0.01 µM	COC(=O)N1CCc2ccc3c(nc([C@@H]4CCC[C@@H](C(=O)O)C4)n3CC[C@H]3CC[C@H](OC)CC3)c2C1 [Compound 156]
0.01 to 0.1 µM	COC(=O)N1CCc2ccc3c(nc(C4CCCCC4)n3C[C@H]3CC[C@@H](C(=O)O)CC3)c2C1 [Compound 221]
0.01 to 0.1 µM	COC(=O)N1CCc2ccc3c(nc(C4CCCCC4)n3[C@H](C)C[C@H]3CCCC[C@H]3C(=O)O)c2C1 [Compound 239]
0.001 to 0.01 µM	COC(=O)N1CCc2ccc3c(nc([C@@H]4CCC[C@@H](C(=O)O)C4)n3C[C@@H](C)c3ccc(F)c(F)c3)c2C1 (single isomer, unassigned) [Compound 148]
0.01 to 0.1 µM	COC(=O)N1CCc2ccc3c(nc([C@H]4CC[C@@H](C(=O)O)CC4)n3[C@@H](C)Cc3ccccc3)c2C1 [Compound 230]
0.01 to 0.1 µM	COC(=O)N1CCc2ccc3c(nc([C@H]4CC[C@H](C(=O)O)CC4)n3[C@H](C)C[C@H]3CCCCO3)c2C1 [Compound 179]
0.1 to 1 µM	COC(=O)N1CCc2ccc3c(nc([C@H]4CC[C@H](C(=O)O)CC4)n3[C@H](C)Cc3ccccc3)c2C1 [Compound 312]
0.01 to 0.1 µM	COC(=O)N1CCc2c([C@H]3CCOC3)cc3c(nc(C4CCC(C(=O)O)CC4)n3[C@@H](C)Cc3ccccc3)c2C1 (stereo partly shown) [Compound 256]

Further lines, the molecule ahead of its results:

Structure (SMILES)	IC50
COC(=O)N1CCc2ccc3c(nc(C4CCCCC4)n3C[C@@H](C(=O)O)c3cc(F)c(Cl)cc3OC)c2C1 (single isomer, unassigned) [Compound 32]	0.001 to 0.01 µM
COC(=O)N1CCc2ccc3c(nc(C4CCCCC4)n3C[C@@H](C(=O)O)c3cc(F)c(C)cc3OC)c2C1 (single isomer, unassigned) [Compound 278]	0.01 to 0.1 µM
COC(=O)N1CCc2ccc3c(nc([C@H]4CC[C@H](C(=O)O)CC4)n3CCc3ccc(OC(F)F)cc3)c2C1 [Compound 155]	0.001 to 0.01 µM
COC(=O)N1CCc2ccc3c(nc(C4CCN(S(=O)(=O)NC(C)=O)CC4)n3[C@@H](C)Cc3ccccc3)c2C1 [Compound 178]	0.01 to 0.1 µM
COC(=O)N1CCc2ccc3c(nc(C4CCCC4)n3C[C@H](CC(=O)O)c3ccccc3)c2C1 (single isomer, unassigned) [Compound 174]	0.01 to 0.1 µM
COC(=O)N1CCc2ccc3c(nc(-c4ccccn4)n3[C@H](C)Cc3ccccc3)c2C1 [Compound 304]	0.1 to 1 µM
COC(=O)N1CCc2ccc3c(nc(C4CCCCC4)n3CC[C@@H]3CCC[C@@H](C(=O)O)C3)c2C1 [Compound 168]	0.001 to 0.01 µM
COC(=O)N1CCc2ccc3c(nc(C4CCCCC4)n3C[C@@H](CC(=O)O)c3cc(F)cc(OC)c3)c2C1 [Compound 35]	0.001 to 0.01 µM
COC(=O)N1CCc2ccc3c(nc([C@H]4CC[C@@](C)(C(=O)O)CC4)n3[C@@H](C)Cc3ccccc3)c2C1 [Compound 49]	0.001 to 0.01 µM
COC(=O)N1CCc2ccc3c(nc(C4CCCCC4)n3C[C@@H](C(=O)O)c3cc(F)ccc3OC)c2C1 (single isomer, unassigned) [Compound 11]	0.001 to 0.01 µM
